We go through three molecules from ChEMBL document CHEMBL1144845, “Ligand binding efficiency: trends, physical basis, and implications” (J Med Chem, 2008).

This test is described as follows: Binding affinity to carbonic anhydrase.

SMILES strings stand for the structures.

Regarding `CC(C)(C)c1ccc(C(=O)Nc2ccccc2S(N)(=O)=O)cc1`, the “Log Ki” value is given as -6.6.
Then `Cc1ccc(S(N)(=O)=O)cc1` [P-TOLUENESULFONAMIDE], with -6.5.
Regarding `CN1C(CN2CCOCC2)=Cc2sc(S(N)(=O)=O)cc2S1(=O)=O`, the “Log Ki” value is -9.7.
